# Patent publication US6656921B1, “Use of zinc hyaluronate against peptic ulcer” (Richter Gedeon Vegyeszeti Gyar RT., priority 1997, dated 2003)
# Marks after values point to notes of the source that are not given here.
# Experiments:
# Format in all cases: in vivo, rat
# [1] = tested on: acidified ethanol induced gastric lesion; assay: Inhibition of acidified-ethanol induced gastric lesions
# Description: Female RG-Wistar rats weighing between 120-150 g were used. Before experiments animals were fasted for 24 hours but received water ad libitum.
# Experiments were carried out according to the technique similar to that described by A. Robert [Gastroenterology 77, […] (1979)].
# Acidified ethanol (mixture of 50 ml of abs. ethanol and 1 ml of concentrated HCI) was used as strong irritants. Dose of acidified ethanol was 0.5 ml/100 g body weight with intragastric administration. Test compounds were given orally 30 minutes before the acidified ethanol challenge. When the duration of action of test compound was studied test material was administered 60 or 120 minutes earlier to the irritating effect induced by acidified-ethanol effect. One hour after the acidified ethanol treatment rats were sacrificed by cervical dislocation. Stomachs were removed and opened along the greater curvature and mildly washed down. The longitudinal hemorrhagic lesions were assayed by length.
# ED50 value was defined as the dose that gave a 50% decrease in ulcer index.
# [2] = tested on: indomethacin induced gastric lesion; assay: Inhibition of indomethacin induced gastric lesion; details: for Inhibition: 30 min before indomethacin; for Lesion number/stomach ± S.E.M.: 30 min before indomethacin 40 mg/kg s.c.
# Description: 2. Inhibition of Indomethacin Induced Gastric Lesion Female RG Wistar rats weighing between 120-150 g were used. Before the experiments animals were fasted for 24 hours but received water ad libitum. Test compounds were given orally, 30 minutes later the animals were treated subcutaneously with indomethacin at a dose of 40 mg/kg. Four hours after the irritating indomethacin administration the animals were killed by cervical dislocation. The stomachs were removed, opened along the greater curvature and the hemorrhagic lesions were counted on the glandular stomach.
# ED50 value represents the dose which protects the stomach by 50 % from the damaging effect of indomethacin.
# [3] = tested on: stress-induced gastric lesion; assay: Inhibition of stress (cold-restraint) induced gastric lesions; details: for Lesion score/stomach ± S.E.M.: 30 min before cold-restraint stress, score 0-3; for Inhibition: 30 min before stress
# Description: Female RG Wistar rats weighing between 120-150 g were used. Before the experiments animals were fasted for 24 hours but received water ad libitum. Experiments were carried out according to the technique similar to that described by Senay et al., (1967). [Proc. Soc. Exp. Biol. Med.124,1221, (1967)].
# Test compounds were given orally. 30 minutes later the animals were immobilized in plastic restraint boxes then placed into a refrigerator at 4° C.-8° C. temperature. Four hours later the animals were removed from both the refrigerator and the restraint boxes and one hour later they were sacrificed by cervical dislocation. The stomachs were removed, opened along the greater curvature and hemorrhagic lesions were scored by a zero to 3 scale: stomachs free from any damage were given a score of 0, stomachs with only a few hemorrhagic lesion were given a score of 1, stomachs with more lesion numbers than 10 were given a score of 2, and stomachs with a lot of lesions were characterized with a score of 3.
# The ED50 were defined as the dose needed to decrease the score of gastric lesions by 50%.
# [4] = tested on: platelet activating factor (PAF) induced gastric lesion; assay: Inhibition of gastric damage induced by platelet activating factor (PAF); details: for Inhibition: 30 min before PAF; for Lesion score/stomach ± S.E.M.: 30 min before PAF infusion, score 0-3
# Description: Male, RG-Wistar rats weighing between 200-250 g were used. Before the experiments animals were fasted for 24 hours but received water ad libitum. Experiments were carried out according to the technique similar to that described by Wallace and Whittle (1986). [Br.J.Pharmac., 89,415, (1986)]. Animals were anaesthetized by intraperitoneal administration of urethane at a dose of 1 g/kg in a volume of 10 ml/kg. Femoral vein was then prepared and cannulated for administration of ulcerogenic PAF. After the surgery PAF was infused intravenously at a rate of 0.1 ml/min for ten minutes at a dose of 200 ng/kg/min. Test compounds were given 30 minutes before the PAF challenge. One hour after the infusion of PAF animals were sacrificed by cervical dislocation; their stomachs were removed and opened along the greater curvature. The hemorrhagic erosions were evaluated by a zero to three scoring system.
# [5] = tested on: acetic acid induced chronic gastric ulcer; assay: Inhibition of acetic acid induced chronic gastric ulcer; details: for Ulcerated area mm^2 ± S.E.M.: day 5 to 14 after surgery
# Description: Female, RG Wistar rats weighing between 120-150 g were used. Before the surgery animals were deprived of food for 24 hours but received water ad libitum. The chronic gastric ulcer was induced by the injection of 25 μl/animal of 20% (v/v) acetic acid into the gastric wall under light ether anaesthesia according to the method similar to that described by Takagi et al. (1969). The oral treatment with the test compounds was started five days after the surgery and continued in a once-a-day regimen up to the 14th day. The animals were killed on the 15th day and their stomachs were dissected. The severity of ulceration was evaluated by the measurement of the diameter of the ulcers and the area affected was calculated. The healing effect was expressed as differences in percentage between the control and test group values.
# [6] = tested on: gastrointestinal motility; assay: Gastrointestinal motility in the charcoal propulsion test; details: 100 mg/kg p.o.
# Description: Experiments were performed on female, RG-Wistar rats weighing 120-140 g, which were fasted for 24 hours but received water ad libitum.
# The experimental procedure was carried out according to the technique similar to that described of P. A. Janssen and A. J. Jageneau [J. Pharm. Pharmacel. 9, 381 (1957)].
# Test compounds were given orally at a dose of 100 mg/kg. Control animals received physiological saline solution instead of test compounds. 30 minutes later, the 5% (w/v) charcoal suspension was administered orally at a volume of 0.5 ml/animal. 60 minutes after the charcoal treatment the animals were sacrificed by cervical dislocation. The intestine from pylorus to cecum was removed, its lengths measured along with the distance traversed by the charcoal meal.
# Motility was expressed as the ratio of length of charcoal suspension to the length of the whole intestine.
# [7] = 10 mg/kg p.o., 30 min before acidified ethanol
# [8] = 25 mg/kg p.o., 30 min before acidified ethanol
# [9] = 25 mg/kg p.o., pretreatment time 60 minutes
# [10] = 25 mg/kg p.o., pretreatment time 120 minutes
# [11] = 50 mg/kg p.o., 30 min before acidified ethanol
# [12] = 50 mg/kg p.o., pretreatment time 60 minutes
# [13] = 50 mg/kg p.o., pretreatment time 120 minutes
# [14] = 100 mg/kg p.o., 30 min before acidified ethanol
# [15] = 100 mg/kg p.o., pretreatment time 60 minutes
# [16] = 100 mg/kg p.o., pretreatment time 120 minutes
substance,measurement,setting,value
zinc hyaluronate [Zinc hyaluronate (M)],Inhibition,[1]; [7],47.7%
same,Lesion length/stomach mm ± S.E.M.,[1]; [7],57.9 ± 8.2 mm
same,Inhibition,[1]; [8],69.9%
same,Lesion length/stomach mm ± S.E.M.,[1]; [8],33.3 ± 7.7 mm
same,Inhibition,[1]; [9],28.7%
same,Lesion length/stomach mm ± S.E.M.,[1]; [9],49.7 ± 5.9 mm
same,Inhibition,[1]; [10],12.2%
same,Lesion length/stomach mm ± S.E.M.,[1]; [10],53.2 ± 7.7 mm
same,Inhibition,[1]; [11],88.3%
same,Lesion length/stomach mm ± S.E.M.,[1]; [11],13.0 ± 3.0 mm
same,Inhibition,[1]; [12],45.6%
same,Lesion length/stomach mm ± S.E.M.,[1]; [12],37.9 ± 12.2 mm
same,Inhibition,[1]; [13],45.9%
same,Lesion length/stomach mm ± S.E.M.,[1]; [13],32.8 ± 7.5 mm
same,Inhibition,[1]; [14],97.6%
same,Lesion length/stomach mm ± S.E.M.,[1]; [14],2.7 ± 1.4 mm
same,Inhibition,[1]; [15],93.4%
same,Lesion length/stomach mm ± S.E.M.,[1]; [15],4.6 ± 1.7 mm
same,Inhibition,[1]; [16],83.0%
same,Lesion length/stomach mm ± S.E.M.,[1]; [16],10.3 ± 4.6 mm
same,ED50 (dose giving 50% decrease in ulcer index),"[1]; p.o., 30 min pretreatment",10.4 mg/kg
same,Inhibition,[2]; 1.0 mg/kg p.o.,15.7%
same,Lesion number/stomach ± S.E.M.,[2]; 1.0 mg/kg p.o.,15.6 ± 6.2
same,Inhibition,[2]; 10.0 mg/kg p.o.,68.1%
same,Lesion number/stomach ± S.E.M.,[2]; 10.0 mg/kg p.o.,5.9 ± 1.9
same,Inhibition,[2]; 100 mg/kg p.o.,89.2%
same,Lesion number/stomach ± S.E.M.,[2]; 100 mg/kg p.o.,2.0 ± 0.9
same,ED50 (dose protecting the stomach by 50% from indomethacin),[2]; p.o.,6.2 mg/kg
same,Lesion score/stomach ± S.E.M.,[3]; 25 mg/kg p.o.,1.0 ± 0.3
same,Inhibition,[3]; 25 mg/kg p.o.,41.2%
same,Lesion score/stomach ± S.E.M.,[3]; 50 mg/kg p.o.,0.4 ± 0.2
same,Inhibition,[3]; 50 mg/kg p.o.,76.5%
same,Lesion score/stomach ± S.E.M.,[3]; 100 mg/kg p.o.,0*
same,Inhibition,[3]; 100 mg/kg p.o.,100%
same,ED50 (dose decreasing score of gastric lesions by 50%),[3]; oral administration,29.4 mg/kg
same,Inhibition,[4]; 50 mg/kg p.o.,27.3%
same,Lesion score/stomach ± S.E.M.,[4]; 50 mg/kg p.o.,1.6 ± 0.4
same,Inhibition,[4]; 100 mg/kg p.o.,40.9%
same,Lesion score/stomach ± S.E.M.,[4]; 100 mg/kg p.o.,1.3 ± 0.2
same,Protection against ulcerogenic effect of PAF (in words),"[4]; rat, in vivo",strongly reduced the ulcerogenic effect of PAF
same,Ulcerated area mm^2 ± S.E.M.,[5]; 0.1 mg/kg p.o. once a day,9.4 ± 2.3 mm^2
same,Ulcerated area mm^2 ± S.E.M.,[5]; 1.0 mg/kg p.o. once a day,7.6 ± 1.4 mm^2
same,Effect on healing of acetic acid induced chronic ulcer (in words),"[5]; rat, in vivo",accelerated the healing
same,Effect on the intestinal motility (in words),[6],absence of change in activity
same,Ratio of charcoal suspension to the whole intestinal part,[6],0.83 ± 0.03
same,Propulsion of charcoal suspension mm ± S.E.M.,"[6]; 30 min before charcoal, 60 min after charcoal",655 ± 3.9 mm
